Laboratory results: ChEMBL document CHEMBL5053545, “Iterative Structure-Based Optimization of Short Peptides Targeting the Bacterial Sliding Clamp” (J Med Chem, 2021)
The source made the active and inactive calls. No cut-off for these calls is given here. *1 amine or outer side, *2 acyl side, *3 side chain or, on linkers, in order; H or OH if unused. Where a SMILES comes first, the peptide text is derived from it. [ ]: non-standard residue; d: D form. The star is where a group is joined. NEtAsp = CCN([C@@H](CC(=O)[*:3])C(=O)[*:2])[*:1]; Acryloyl(3-(3-pyridyl),E) = O=C(/C=C/c1cccnc1)*; Phe(3,4-Cl2) = N[C@@H](Cc1ccc(Cl)c(Cl)c1)C(=O)O; Phe(3,4-F2) = N[C@@H](Cc1ccc(F)c(F)c1)C(=O)O; Acetyl(1-naphthyl) = O=C(Cc1cccc2ccccc12)*; Oic = O=C(O)[C@@H]1C[C@@H]2CCCC[C@@H]2N1; Cinnamoyl(4-F) = O=C(/C=C/c1ccc(F)cc1)*; X6 = O=C([C@@H]1CC(O)CN1[*:1])[*:2]; NH(4-MeO-phenyl) = COc1ccc(N*)cc1; X2 = O=C(CN(Cc1ccccn1)[*:1])[*:2]; NMeQ = CN[C@@H](CCC(N)=O)C(=O)O; Cha = N[C@@H](CC1CCCCC1)C(=O)O; NMeD = CN[C@@H](CC(=O)O)C(=O)O; X5 = CN(C)C(=NCC(=O)*)N(C)C; Pip = O=C(O)[C@@H]1CCCCN1; X4 = NC[C@H](Cc1ccccc1)N*; X1 = O=C(/C=C/c1ccccc1)*; CO = O=C([*:1])[*:2]; Sar = CNCC(=O)O

What was measured:
Escherichia coli [1] = test: Binding affinity to Escherichia coli sliding clamp assessed as gibbs free energy change by ITC analysis
[2] = Inhibition of SC-dependent DNA replication in Escherichia coli using pU118 DNA as substrate preincubated for 10 mins followed by substrate addition and measured after 6 mins by PAGE electrophoresis
Escherichia coli [3] = test: Binding affinity to Escherichia coli sliding clamp assessed as dissociation rate constant by ITC analysis
Escherichia coli [4] = test: Binding affinity to Escherichia coli sliding clamp assessed as association rate constant by ITC analysis
[5] = Binding affinity to Escherichia coli sliding clamp assessed as dissociation constant by ITC analysis
Escherichia coli [6] = test: Antimicrobial activity against Escherichia coli D22 at 128 ug/ml incubated 18 to 24 hrs by broth microdilution method; assay type: functional, organism-based; settings: dose 128.0 µg/ml, time 18-24 hrs

| deltaG (Escherichia coli [1]) | IC50 [2] | K (Escherichia coli [3]) | K (Escherichia coli [4]) | SMILES | Kd [5] | Activity (Escherichia coli [6]) |
| --- | --- | --- | --- | --- | --- | --- |
| -38.5 kJ/mol | 3.2 µM | 7.4 10^-3/s | 4 10^4/M/s | CC(=O)N[C@@H](CCC(N)=O)C(=O)N[C@@H](CC1CCCCC1)C(=O)N[C@@H](CC(=O)O)C(=O)N[C@@H](CC(C)C)C(=O)N[C@@H](Cc1ccccc1)C(=O)O (Ac-Q[Cha]DLF-OH) | 0.194 µM |  |
| -42.3 kJ/mol |  | 5.5 10^-3/s | 1.1 10^5/M/s | CC(C)C[C@H](NC(=O)[C@H](CC(=O)O)N(C)C(=O)[C@H](CC1CCCCC1)NC(=O)[C@H](CCC(N)=O)NC(=O)/C=C/c1cccnc1)C(=O)N[C@@H](Cc1ccc(Cl)c(Cl)c1)C(=O)O ({Acryloyl(3-(3-pyridyl),E)}-Q[Cha][NMeD]L[Phe(3,4-Cl2)]-OH) | 0.046 µM | inactive |
| -40.2 kJ/mol |  | 5.7 10^-3/s | 5.1 10^4/M/s | CC(C)C[C@H](NC(=O)[C@H](CC(=O)O)N(C)C(=O)[C@H](CC1CCCCC1)NC(=O)[C@H](CCC(N)=O)NC(=O)/C=C/c1ccc(F)cc1)C(=O)N[C@@H](Cc1ccc(F)c(F)c1)C(=O)O ({Cinnamoyl(4-F)}-Q[Cha][NMeD]L[Phe(3,4-F2)]-OH) | 0.099 µM |  |
| -42.3 kJ/mol | 0.15 µM | 2.3 10^-3/s | 6 10^4/M/s | CC(=O)N[C@@H](CCC(N)=O)C(=O)N[C@@H](CC1CCCCC1)C(=O)N[C@@H](CC(=O)O)C(=O)N[C@@H](CC(C)C)C(=O)N1[C@H](C(=O)N[C@@H](Cc2ccc(Cl)c(Cl)c2)C(=O)O)C[C@@H]2CCCC[C@@H]21 (Ac-Q[Cha]DL[Oic][Phe(3,4-Cl2)]-OH) | 0.039 µM | inactive |
| -35.6 kJ/mol |  | 2.1 10^-2/s | 4 10^4/M/s | CC(=O)N[C@@H](CCC(N)=O)C(=O)N[C@@H](CC1CCCCC1)C(=O)N[C@@H](CC(=O)O)C(=O)N[C@@H](CC(C)C)C(=O)N(C)CC(=O)N[C@@H](CC(C)C)C(=O)O (Ac-Q[Cha]DL[Sar]L-OH) | 0.583 µM | inactive |
| -36.8 kJ/mol |  | 1.7 10^-2/s | 4.4 10^4/M/s | CC(=O)N[C@@H](CCC(N)=O)C(=O)N[C@@H](CC1CCCCC1)C(=O)N[C@@H](CC(=O)O)C(=O)N[C@@H](CC(C)C)C(=O)N1CC(O)C[C@H]1C(=O)N[C@@H](CC(C)C)C(=O)O (stereo partly drawn) (Ac-Q[Cha]DL[X6]L-OH) | 0.369 µM |  |
| -36.4 kJ/mol |  | 1.1 10^-2/s | 3.4 10^4/M/s | CC(C)C[C@H](NC(=O)[C@H](CC(=O)O)NC(=O)[C@H](CC1CCCCC1)NC(=O)[C@H](CCC(N)=O)NC(=O)CN=C(N(C)C)N(C)C)C(=O)N[C@@H](Cc1ccccc1)C(=O)O (X5-Q[Cha]DLF-OH) | 0.353 µM |  |
| -39.3 kJ/mol |  | 6.5 10^-3/s | 4.6 10^4/M/s | CC(C)C[C@H](NC(=O)[C@H](CC(=O)O)NC(=O)[C@H](CC1CCCCC1)NC(=O)[C@H](CCC(N)=O)NC(=O)/C=C/c1ccccc1)C(=O)N[C@@H](Cc1ccccc1)C(=O)O (X1-Q[Cha]DLF-OH) | 0.129 µM | inactive |
| -40.2 kJ/mol |  | 5.7 10^-3/s | 6.5 10^4/M/s | CC(C)C[C@H](NC(=O)[C@H](CC(=O)O)NC(=O)[C@H](CC1CCCCC1)NC(=O)[C@H](CCC(N)=O)NC(=O)Cc1cccc2ccccc12)C(=O)N[C@@H](Cc1ccccc1)C(=O)O ({Acetyl(1-naphthyl)}-Q[Cha]DLF-OH) | 0.089 µM |  |
| -38.5 kJ/mol |  | 5.7 10^-3/s | 3.4 10^4/M/s | CC(C)C[C@H](NC(=O)[C@H](CC(=O)O)NC(=O)[C@H](CC1CCCCC1)NC(=O)[C@H](CCC(N)=O)NC(=O)CNCc1ccccn1)C(=O)N[C@@H](Cc1ccccc1)C(=O)O (H-[X2]Q[Cha]DLF-OH) | 0.172 µM |  |
| -38.5 kJ/mol |  | 1.1 10^-2/s | 5.7 10^4/M/s | CC(=O)N[C@@H](CCC(N)=O)C(=O)N[C@@H](CC1CCCCC1)C(=O)N[C@@H](CC(=O)O)C(=O)N[C@@H](CC(C)C)C(=O)N1CCC[C@H]1C(=O)N[C@@H](CC(C)C)C(=O)O (Ac-Q[Cha]DLPL-OH) | 0.182 µM |  |
| -38.9 kJ/mol |  | 7.4 10^-3/s | 4.6 10^4/M/s | CC(C)C[C@H](NC(=O)[C@H](CC(=O)O)NC(=O)[C@H](CC1CCCCC1)NC(=O)[C@H](CCC(N)=O)NC(=O)/C=C/c1cccnc1)C(=O)N[C@@H](Cc1ccccc1)C(=O)O ({Acryloyl(3-(3-pyridyl),E)}-Q[Cha]DLF-OH) | 0.156 µM | inactive |
| -36 kJ/mol |  | 1.9 10^-2/s | 3.7 10^4/M/s | CC(=O)N[C@@H](CCCNC(=N)N)C(=O)N[C@@H](CCC(N)=O)C(=O)N[C@@H](CC1CCCCC1)C(=O)N[C@@H](CC(=O)O)C(=O)N[C@@H](CC(C)C)C(=O)N[C@@H](Cc1ccccc1)C(=O)O (Ac-RQ[Cha]DLF-OH) | 0.498 µM |  |
| -42.7 kJ/mol |  | 5.2 10^-3/s | 1.4 10^5/M/s | CC(C)C[C@H](NC(=O)[C@H](CC(=O)O)N(C)C(=O)[C@H](CC1CCCCC1)NC(=O)[C@H](CCC(N)=O)NC(=O)/C=C/c1cccnc1)C(=O)N1CCC[C@H]1C(=O)N[C@@H](Cc1ccccc1)C(=O)O ({Acryloyl(3-(3-pyridyl),E)}-Q[Cha][NMeD]LPF-OH) | 0.035 µM | inactive |
| -36 kJ/mol |  | 1.3 10^-2/s | 2.9 10^4/M/s | CCN(C(=O)[C@H](CC1CCCCC1)NC(=O)[C@H](CCC(N)=O)NC(C)=O)[C@@H](CC(=O)O)C(=O)N[C@@H](CC(C)C)C(=O)N[C@@H](Cc1ccccc1)C(=O)O (Ac-Q[Cha][NEtAsp]LF-OH) | 0.523 µM |  |
| -37.7 kJ/mol |  | 9.1 10^-3/s | 3.3 10^4/M/s | CC(=O)N[C@@H](CCC(N)=O)C(=O)N[C@@H](CC1CCCCC1)C(=O)N[C@@H](CC(=O)O)C(=O)N[C@@H](CC(C)C)C(=O)N[C@@H](Cc1ccccc1)C(N)=O (Ac-Q[Cha]DLF-NH2) | 0.268 µM |  |
| -35.1 kJ/mol |  | 1.7 10^-2/s | 2.6 10^4/M/s | CC(=O)N[C@@H](CCC(N)=O)C(=O)N[C@@H](CC1CCCCC1)C(=O)N[C@@H](CC(=O)O)C(=O)N[C@@H](CC(C)C)C(=O)NCC(=O)N[C@@H](CC(C)C)C(=O)O (Ac-Q[Cha]DLGL-OH) | 0.682 µM |  |
| -32.2 kJ/mol |  | 4.6 10^-2/s | 2.1 10^4/M/s | CC(=O)N(C)[C@@H](CCC(N)=O)C(=O)N[C@@H](CC1CCCCC1)C(=O)N[C@@H](CC(=O)O)C(=O)N[C@@H](CC(C)C)C(=O)N[C@@H](Cc1ccccc1)C(=O)O (Ac-[NMeQ][Cha]DLF-OH) | > 1 µM |  |
| -34.6 kJ/mol |  | 1.1 10^-2/s | 1.2 10^4/M/s | CC(=O)N[C@@H](CCC(N)=O)C(=O)N[C@@H](CC1CCCCC1)C(=O)N[C@@H](CC(=O)O)C(=O)N[C@@H](CC(C)C)C(=O)N[C@H](CN)Cc1ccccc1 (Ac-Q[Cha]DL-X4) | 0.877 µM |  |
| -37.7 kJ/mol |  | 1 10^-2/s | 4.3 10^4/M/s | CC(=O)N[C@@H](CCC(N)=O)C(=O)N[C@@H](CC1CCCCC1)C(=O)N[C@@H](CC(=O)O)C(=O)N[C@@H](CC(C)C)C(=O)N1CCCC[C@H]1C(=O)N[C@@H](CC(C)C)C(=O)O (Ac-Q[Cha]DL[Pip]L-OH) | 0.243 µM |  |
| -37.7 kJ/mol |  | 1.1 10^-3/s | 4.2 10^4/M/s | COc1ccc(NC(=O)N[C@@H](CCC(N)=O)C(=O)N[C@@H](CC2CCCCC2)C(=O)N(C)[C@@H](CC(=O)O)C(=O)N[C@@H](CC(C)C)C(=O)N[C@@H](Cc2ccc(Cl)c(Cl)c2)C(=O)O)cc1 ({NH(4-MeO-phenyl)-CO}-Q[Cha][NMeD]L[Phe(3,4-Cl2)]-OH) | 0.266 µM |  |
